“And” between values parts separate entries of the source, which are not always exact repeats. Equal entries are not always repeated.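 Method: 48-hour compound exposure of cells in 96-well plates, five concentrations, linear interpolation of endpoints. At the GI50, growth is halved. At the TGI there is no net growth.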
What was measured:
Assay in all cases: NCI tumour cell line growth inhibition, 48 h
[1] = tested on: OVCAR-5 ovarian
[2] = tested on: UO-31 renal
[3] = tested on: HCT-15 colon
[4] = tested on: TK-10 renal
[5] = tested on: RPMI-8226 leukemia
[6] = tested on: T-47D breast
[7] = tested on: IGROV1 ovarian
[8] = tested on: MCF7 breast
[9] = tested on: MOLT-4 leukemia
[10] = tested on: HL-60(TB) leukemia

SMILES | GI50 [1] | TGI [1] | GI50 [2] | TGI [2] | GI50 [3] | TGI [3] | GI50 [4] | TGI [4] | GI50 [5] | TGI [5] | GI50 [6] | TGI [6] | GI50 [7] | TGI [7] | GI50 [8] | TGI [8] | GI50 [9] | TGI [9] | TGI [10]
Cc1cc(NCCCNc2ccnc3cc(Cl)ccc23)nc(Nc2ccc(C(=O)N3CCCCC3)cc2)n1 | 4.5 µM | 18.5 µM | 2.16 µM | 5.87 µM | 2.52 µM | 6.79 µM | 1.99 µM | 4.59 µM | 2.27 µM | 5.66 µM | 2.15 µM | 6.2 µM | 3.09 µM | 12.7 µM | 1.82 µM | 4.09 µM | 2.86 µM | 13.5 µM | –
CN1C(=O)C(C)(C)NS1(=O)=O | – | > 100 µM | – | > 100 µM | – | > 100 µM | – | > 100 µM | – | > 100 µM | – | – | – | > 100 µM | – | – | – | > 100 µM | > 100 µM
CO[C@H](C(=O)O[C@H]1C(=O)N2CCC3CCC1C32C)c1ccccc1 (stereo partly specified) | – | > 100 µM | – | > 100 µM | – | > 100 µM | – | – | – | > 100 µM | – | – | – | > 100 µM | – | – | – | > 100 µM | > 100 µM
CC(C)COC(=O)N1N=NC2C3CC(=O)C(O3)C21 (stereo unspecified) | – | > 100 µM | – | > 100 µM | – | > 100 µM | – | > 100 µM | – | > 100 µM | – | – | – | > 100 µM | – | – | – | > 100 µM | –
O=c1/c(=C/c2ccccc2O)sc2nc3ccccc3n12 | – | > 100 µM | – | > 100 µM | – | 49.8 µM | – | > 100 µM | – | 64.9 µM | – | – | – | 85.1 µM | – | – | – | 43.7 µM | 26.8 µM
C/C(=N\NC(=O)C[n+]1ccccc1)c1sc(-c2nc(C)c(/C(C)=N/NC(=O)C[n+]3ccccc3)s2)nc1C | – | > 100 µM | – | > 100 µM | – | > 100 µM | – | > 100 µM | – | > 100 µM | – | – | – | > 100 µM | – | – | – | > 100 µM | –
CC(=O)O[C@H]1CC[C@@]2(C)C(=CC[C@@H]3C2CC[C@]2(C)C(=O)NC(=O)CC32)C1 (stereo partly specified) | – | > 100 µM | – | > 100 µM | – | > 100 µM | – | > 100 µM | – | – | – | – | – | > 100 µM | – | – | – | > 100 µM | > 100 µM
COc1cccc(-c2cc(=O)c3cc(C)c(C)c(C(=O)O)c3o2)c1 | – | > 100 µM | – | > 100 µM | – | > 100 µM | – | > 100 µM | – | > 100 µM | – | – | – | > 100 µM | – | – | – | > 100 µM | > 100 µM
COc1ccc(Nc2[nH]n(C3=Nc4ccccc4Sc4ccccc43)c(=O)c2C#N)cc1 | 10.8 µM | > 100 µM | 1.02 µM | > 100 µM | 1.87 µM | 34.1 µM | 3.81 µM | 41 µM | 1.59 µM | > 100 µM | 0.696 µM | 9.22 µM | 2.79 µM | > 100 µM | 2.18 µM | 11.7 µM | – | – | –
CC1OC(OC23C(=O)CC(C)(O)CC2(O)C=CC2=C3C(=O)c3ccc(C4CC(OC5CCC(OC6CC(O)C(O)C(C)O6)C(C)O5)C(O)C(C)O4)c(O)c3C2=O)CCC1O (stereo unspecified) | – | 33.1 µM and 34.9 µM | – | 32.2 µM and 32.4 µM | – | – | – | 36.5 µM and 31.6 µM | – | > 100 µM | – | – | – | 30.6 µM and 30.1 µM | – | – | – | > 100 µM | > 100 µM
C=CCNC(=O)ON1C(=O)CCC1=O | – | > 100 µM | – | > 100 µM | – | > 100 µM | – | > 100 µM | – | > 100 µM | – | – | – | > 100 µM | – | – | – | > 100 µM | > 100 µM

From PubChem BioAssay (NCI)
